In patent publication US11400035B2, “Preservative mixture” (Symrise AG, priority 2016, dated 2022):

Columns and labels:
[1] = experimentally determined values from literature; cited from earlier work
[2] = Recrystallization in shampoo, 2 days at 5° C., microscopy; type: physicochemical; conditions: polarized light, 60 fold, 0.1% 4-isopropyl-3-methyl-phenol
Protocol: To investigate the influence on recrystallization in a finished formulation the pre-solutions BC, BC2, BC3 and BC5 (Table 3) in comparison to neat 4-isopropyl-3-methyl phenol were incorporated into a shampoo. (Table 5, trials 1-5) The samples were stored for 2 days at 5° C. and then examined by microscopy.
Production method shampoo: Blend Phase A by stirring slowly with a vane stirrer, stop the process when foaming starts. Swell Ucare Poylmer JR-400 in water by stirring and warming up to 50° C. (The dispersion becomes clear and slightly viscous, when swelling process is completed) Add Phases B, C and D to A one after the other by stirring with a vane stirrer.
Incorporation of 4-isopropyl-3-methyl-phenol (neat) into the finished shampoo: Heat up the shampoo to 70° C., add 4-isopropyl-3-methyl-phenol and stir for 15 min.
Incorporation of solutions BC, BC2, B3 and BC5: Blend 0,45% (corresponds to 0,1% neat 4-isopropyl-3-methyl-phenol) of the different mixtures with the shampoo formula at 22° C. by […]
Microscopic images (Olympus IX 70, polarized light, 60 fold) of shampoo formulae 1-5 after 2 days storage at 5° C. are provided in FIGS. 4A to 4E.

[3] = General solubility of 4-isopropyl-3-methyl-phenol in different hydrophilic solvents, storage at 5° C.; type: physicochemical; conditions: stored at 5° C.
Protocol: After preparation, the samples were stored at 5° C. for […]. […] The evaluation of these limits was important for further determination of quantitative solubility improvement. The results are compiled in Table A and 13; the symbols have the following meanings: (++++) fully dissolved; (++) dissolved, but moderate recrystallisation after 48 h at 5° C.; (+) dissolved, but strong recrystallisation after 48 h at 5° C.; (#) not dissolved.

Row | Structure (SMILES) | LOG Po/w (exp.) [1] | further results
1 | CCCCC(O)CO (stereo not shown) [1,2-Hexanediol] | 0.69 | 
2 | Cc1cc(O)ccc1C(C)C [4-isopropyl-3-methyl-phenol] |  | Recrystallization in shampoo [2]: recrystallized
3 | OCc1ccccc1 [Benzylalkohol] |  | Solubility of 4-isopropyl-3-methyl-phenol in different hydrophilic solvents ([3]; Concentration 15 % b.w.): ++; Solubility of 4-isopropyl-3-methyl-phenol in different hydrophilic solvents ([3]; Concentration 22 % b.w.): +; Solubility of 4-isopropyl-3-methyl-phenol in different hydrophilic solvents ([3]; Concentration 25 % b.w.): +; Solubility of 4-isopropyl-3-methyl-phenol in different hydrophilic solvents ([3]; Concentration 30 % b.w.): +; Solubility of 4-isopropyl-3-methyl-phenol in different hydrophilic solvents ([3]; Concentration 34 % b.w.): +; Solubility of 4-isopropyl-3-methyl-phenol in different hydrophilic solvents ([3]; Concentration 36 % b.w.): +; Solubility of 4-isopropyl-3-methyl-phenol in different hydrophilic solvents ([3]; Concentration 40 % b.w.): +; Solubility of 4-isopropyl-3-methyl-phenol in different hydrophilic solvents ([3]; Concentration 46 % b.w.): +
4 | Cc1ccc(C(C)C)cc1O [Carvacrol] | 3.49 | 
5 | C=C(C)C1CC=C(C)C(=O)C1 (stereo not shown) [Carvone] | 2.71 | 
6 | CCOCCOCCO [Ethoxydiglycol] | −0.54 | 
7 | CCCCCCCCCCCC(=O)OCC [Ethyl Laurate] | 5.71 | 
8 | CCOC(C)=O [Ethyl acetate] | 0.73 | 
9 | OCCO [Ethylene glycol] | −1.36 | 
10 | O=C1OCC(CO)O1 (stereo not shown) [Glycerin Carbonate] |  | Solubility of 4-isopropyl-3-methyl-phenol in different hydrophilic solvents ([3]; Concentration 5 % b.w.): ++
11 | CC(=O)OCCC(C)C [Isoamyl acetate] | 2.25 | 
12 | C=C(C)[C@H]1CC=C(C)CC1 [Limonene] | 4.38 | 
13 | CC(C)[C@@H]1CC[C@@H](C)CC1=O [Menthone] | 3.05 | 
14 | CC(=O)OC1CC(C)CCC1C(C)C (stereo not shown) [Menthyl acetate] | 4.00 | 
15 | COC(=O)c1ccccc1O [Methyl salicylate] | 2.55 | 
16 | O=C(OCCc1ccccc1)c1ccccc1 [Phenethyl Benzoate] | 4.01 | 
17 | OCCOc1ccccc1 [Phenoxyethanol] | 1.16 | 
18 | CC1COC(=O)O1 (stereo not shown) [Propylene Carbonate] |  | Solubility of 4-isopropyl-3-methyl-phenol in different hydrophilic solvents ([3]; Concentration 18 % b.w.): ++; Solubility of 4-isopropyl-3-methyl-phenol in different hydrophilic solvents ([3]; Concentration 29 % b.w.): +
19 | CC(O)CO (stereo not shown) [Propylene Glycol] |  | Solubility of 4-isopropyl-3-methyl-phenol in different hydrophilic solvents ([3]; Concentration 22 % b.w.): ++; Solubility of 4-isopropyl-3-methyl-phenol in different hydrophilic solvents ([3]; Concentration 25 % b.w.): +
